# Measured values from patent publication US20260265221A1, “PARP INHIBITOR, AND PREPARATION METHOD THEREFOR AND MEDICAL USE THEREOF” (WIGEN BIOMEDICINE TECHNOLOGY (SHANGHAI) CO., LTD., priority 2023, published 2026).
# Assays:
# [1] = system: MDA-MB-436 xenograft tumor; test: In vivo efficacy in MDA-MB-436 xenograft tumor model; parameters: species or system mouse; settings: for Tumor growth inhibition rate: after 28 days
# Protocol: MDA-MB-436 cells were subjected to adherent culture in an L-15 medium containing 10% fetal bovine serum and 1% AA at 37° C. with 5% CO2. The cells were digested with trypsin and routinely passaged twice a week. When cells were maintained in the exponential growth phase with viability greater than 95%, the cells were collected, counted, and inoculated. Each 6- to 8-week-old female BALB/c nude mouse was inoculated with 10×10^6 MDA-MB-436 cells+Matrigel in a volume of 0.2 mL in the right cervicodorsal region. […] The compounds were orally administered once a day, and the tumor volume and body weight of the mice were measured twice a week. After 28 days of administration, the mice were sacrificed. Data were processed using software such as Excel.
# MDA-MB-436 cells = test: In vitro inhibition of MDA-MB-436 cell proliferation (CTG, 10 days); format: cell-based; settings: Homo sapiens, MDA-MB-436, 240 h, 10 days incubation, read-out: Inhibitory activity against MDA-MB-436 cells (IC50)
# Protocol: MDA-MB-436 cells were seeded in a 96-well low-adsorption plate at 1200 cells/well. After the cells adhered to the wall overnight, the serially diluted compound was added, and the cells were incubated for another 10 days. The ATP level of the cells was then determined by CTG to evaluate the cell growth. The growth inhibition percentages and IC50 of the compounds were calculated compared to the DMSO group.
# [2] = In vivo pharmacokinetic experiment in CD-1 mice; settings: mouse, plasma, CD-1 female mice; for Vd: read-out: Vdss
# Protocol: CD-1 female mice aged 7 to 10 weeks were intravenously administered and orally administered at doses of 1 mg/kg and 10 mg/kg, respectively.
# On the day of the experiment, animals in the intravenous group were given the corresponding compound by single injection via the tail vein at an administration volume of 2 mL/kg, and animals in the oral group were given the corresponding compound by single intragastric injection at an administration volume of 10 mL/kg. The animals were weighed before administration, and their administration volume was calculated according to their body weight. […] About […] of whole blood was collected through the orbital venous plexus at each time point and used to prepare plasma for concentration determination by high performance liquid chromatography-tandem mass spectrometry (LC-MS/MS). All animals were suffocated by CO2 after the PK samples were collected at the last time point. The plasma concentrations were processed using a non-compartmental model of Winnolin™ version 8.2 (Pharsight, mountain View, CA) pharmacokinetic software, and the pharmacokinetic parameters were calculated using a linear-log trapezoidal method.
# [3] = In vitro liver microsomal stability, human; format: in vitro ADME; settings: 1 μM compound, 500 μg/mL liver microsomes, NADPH
# [4] = In vitro liver microsomal stability, mouse; format: in vitro ADME; settings: 1 μM compound, 500 μg/mL liver microsomes, NADPH
# [5] = 0 days (start of administration), BALB/c nude mice
# [6] = 28 days, oral once a day, […] day 1-7 and 3 mg/kg day 8-28
# [7] = oral once a day, […] day 1-7 and 3 mg/kg day 8-28
IC50 (MDA-MB-436 cells) [nM],"AUC(0-t) ([2]; iv, Injection (1 mg/kg)) [ng·h/mL]","clearance ([2]; iv, Injection (1 mg/kg)) [mL/min/kg]","half-life ([2]; iv, Injection (1 mg/kg)) [h]","Vd ([2]; iv, Injection (1 mg/kg)) [L/kg]",AUC(0-t) ([2]; Oral administration (10 mg/kg)) [ng·h/mL],Cmax ([2]; Oral administration (10 mg/kg)) [ng/mL],Tmax ([2]; Oral administration (10 mg/kg)) [h],bioavailability ([2]; Oral administration (10 mg/kg)) [%],half-life ([2]; Oral administration (10 mg/kg)) [h],half-life at 1 μM [3] [h],half-life at 1 μM [4] [h],SMILES,"Mean tumor volume [1, 5] [mm^3]","Mean tumor volume [1, 6] [mm^3]","Tumor growth inhibition rate [1, 7] [%]"
3.7,3590,4.62,3.41,0.73,60800,16000,0.08,192,1.89,3.8,9.43,Cc1nc2ccc(CN3CCN(c4ccc(C(=O)NC5CC5)nc4F)CC3)cc2[nH]c1=O [Compound 9],212,185,113
16,2170,7.5,5.07,2.38,20400,4530,0.17,93,3.8,1.67,14.4,Cc1nc2ccc(CN3CCN(c4ccc(C(=O)NC5CC5)nc4F)CC3)c(F)c2[nH]c1=O [Compound 10],,,
1.7,,,,,,,,,,,,CCc1nc2ccc(CN3CCN(c4ccc(C(=O)N[C@H]5C[C@H]5F)nc4F)CC3)cc2[nH]c1=O [Compound 11],,,

# Continued, molecule first:
SMILES,IC50 (MDA-MB-436 cells) [nM],"AUC(0-t) ([2]; iv, Injection (1 mg/kg)) [ng·h/mL]","clearance ([2]; iv, Injection (1 mg/kg)) [mL/min/kg]","half-life ([2]; iv, Injection (1 mg/kg)) [h]","Vd ([2]; iv, Injection (1 mg/kg)) [L/kg]",AUC(0-t) ([2]; Oral administration (10 mg/kg)) [ng·h/mL],Cmax ([2]; Oral administration (10 mg/kg)) [ng/mL],Tmax ([2]; Oral administration (10 mg/kg)) [h],bioavailability ([2]; Oral administration (10 mg/kg)) [%],half-life ([2]; Oral administration (10 mg/kg)) [h],half-life at 1 μM [3] [h],half-life at 1 μM [4] [h],"Mean tumor volume [1, 5] [mm^3]","Mean tumor volume [1, 6] [mm^3]","Tumor growth inhibition rate [1, 7] [%]"
"CNC(=O)c1ccc(N2CCN(Cc3ccc4nc(C)c(=O)[nH]c4c3F)CC2)c(F)n1 [AZD9574, reference compound]",9,2550,6.42,4.54,2.03,25400,5140,0.5,99.5,4.37,1.72,2.1,212,126,141
Cc1nc2ccc(CN3CCN(c4ccc(C(=O)N[C@H]5C[C@H]5F)nc4F)CC3)cc2[nH]c1=O [Compound 1],1.6,3680,4.52,3.13,1.13,60800,14800,0.17,166,2.08,8.23,4.88,212,87,159
Cc1nc2ccc(CN3CCN(c4ccc(C(=O)N[C@@H]5C[C@@H]5F)nc4F)CC3)cc2[nH]c1=O [Compound 2],2.4,2120,7.7,1.48,0.76,30900,10600,0.5,146,1.71,3.88,5.15,,,
CCc1nc2ccc(CN3CCN(c4ccc(C(=O)N[C@@H]5C[C@@H]5F)nc4F)CC3)cc2[nH]c1=O [Compound 6],2.6,,,,,,,,,,,,,,
